Measurements reported in patent publication US20070027216A1, “NOVEL HYDROCHLORIDE SALTS OF LEVODOPA” (priority 2005, published 2007).

How the values were obtained:
[1] = In vitro dissolution of fast-dissolve tablets in SGF (simulated gastric fluid); format: physicochemical; conditions: 50 rpm, FIG. 5; for time to realize >90% dissolved: about 400 mg tablet, target 100 mg levodopa, lactose filler, 200 mL SGF pH 2.0, 37 degrees C., average of N=2, normalized by final concentration
Protocol: A dissolution study for a levodopa fast-dissolve tablet feasibility study was completed. All tablets were about 400 mg total weight and contained a target of 100 mg levodopa in four forms: levodopa free base, levodopa hydrochloride salt (from Example 1), levodopa free base jet milled (5-10 micrometers), and levodopa free base jet milled granulated with HPC-L solution. The filler for the tablet was Pharmatose DCL 14 (lactose). The dissolution was carried out in 200 mL of SGF (simulated gastric fluid) at 37 degrees C. using an overhead mixer at a speed of 50 rpm. […] In the above described dissolution study, the SGF was prepared using the following preparation: Dissolved 4 grams sodium chloride and 2 grams Triton X-100 in 2000 mL HPLC grade water. Added 1 N hydrochloric acid to the solution until the pH reached 2.0.

[2] = temperature not given; cited from earlier work
Aqueous solubility = format: physicochemical; conditions: water, 25 °C; at about 25 degrees C.
Protocol: To a slurry containing levodopa (15.1 g, 0.0766 mol) in acetonitrile (750 ml) was added concentrated hydrochloric acid (7.0 mL, 0.0781 mol) dropwise with stirring. Addition of hydrochloric acid to the slurry caused it to form a clear solution followed by precipitation of levodopa hydrochloride. The solid material was collected by filtration and dried under a flow of nitrogen overnight. The solid was characterized using PXRD (Bruker), DSC, TGA and Raman spectroscopy.

| time to >90% dissolved, free base versus hydrochloride salt ([1]; same tablets, 200 mL SGF, 37 degrees C.) | SMILES | time to realize >90% dissolved [1] | aqueous solubility of the free base [2] | solubility (Aqueous solubility) |
| --- | --- | --- | --- | --- |
| about twice as long | N[C@@H](Cc1ccc(O)c(O)c1)C(=O)O [levodopa free base, (−)-2-amino-3-(3,4-dihydroxyphenyl)propanoic acid] | about 20 minutes | about 1.65 mg/mL |  |
|  | Cl.NC(Cc1ccc(O)c(O)c1)C(=O)O (single isomer, unassigned; (-)) [levodopa hydrochloride salt, (−)-2-amino-3-(3,4-dihydroxyphenyl)propanoic acid hydrochloride] | ~10 min |  | 11 to 16 mg/mL |
